Source: patent US20060240494A1, “Biocidal molecules, macromolecular targets and methods of production and use” (priority 2000, published 2006)
Like-named read-outs stand apart in the source and are kept apart here. Non-standard residues stand in square brackets, D forms with d. No end group written: not given here. *: point of attachment. Biotin = O=C1N[C@H]2[C@H](CS[C@H]2CCCCC(=O)*)N1

What was measured:
[1] = system: E. coli strains (including TG-1, or K-12)
[2] = biological target: DnaK (Escherichia coli, UniProt P0A6Y8); details: 1 μg DnaK; biotin-labeled peptide
[3] = system: E. coli LPS; details: nitrocellulose membrane-bound LPS
[4] = system: LPS from S. typhimurium; details: nitrocellulose membrane-bound LPS
[5] = biological target: E. coli DnaK aa583-615, hinge region between helices D and E (Escherichia coli, UniProt P0A6Y8); details: 5 μg fragment; 10 μg/mL biotin-labeled peptide
Text: (§1) A control strip was stained with amido black 10B to verify the presence of all DnaK fragments on the nitrocellulose sheet.

[6] = biological target: E. coli DnaK aa397-439, conventional peptide binding pocket (Escherichia coli, UniProt P0A6Y8); details: non-specific binding; 10 μg/mL biotin-labeled peptide
Text: as §1

[7] = biological target: GroEL (Escherichia coli, UniProt P0A6F5); details: nitrocellulose membrane-bound protein; 10 μg/ml peptide
[8] = biological target: Hsp70 (Homo sapiens, UniProt P0DMV8); details: nitrocellulose membrane-bound protein; 10 μg/ml peptide
[9] = biological target: T1, recombinant E. coli DnaK (Escherichia coli, UniProt P0A6Y8); assay: EnzChek ATPase assay, recombinant DnaK; type: biochemical; details: 50 molar equivalents of peptide; 22° C., 30 min; UV absorbance at 360 nm
T1 construct: purchased StressGen, Victoria, Canada
Text: To determine whether the proline-rich antibacterial peptides that were predicted to bind to DnaK between the peptide binding pocket and the C-terminus would interfere with ATPase activity, a recently developed continuous spectrophotometric (colorimetric) ATPase activity assay [Rieger, C. E. et al, (1997) Anal. Biochem. 246: 86-95] was used. This assay uses using 2-amino-6-mercapto-7-methylpurine ribonucleoside (MESG)/purine nucleoside phosphorylase reaction to detect the released inorganic phosphate (EnzChek ATPase determination kit from Molecular Probes, Eugene, USA). Assays were performed in 500 μL tubes in duplicates in a total volume of 125 μL containing 20 mM tris(hydroxymethyl)amino-ethane (Tris)-HCl, pH 7.6, 1 mM MgCl2, […] (except in assaying the baseline), 5 μg of DnaK (recombinant DnaK protein from StressGen,Victoria, Canada) and 50 molar equivalents of the particular peptide, MESG and the purine nucleoside phosphorylase recommended by the manufacturer. After incubation at 22° C. for 30 min, 100 μL of the reaction mixture was transferred to a quartz cuvette and the ultraviolet (UV) absorbance at 360 nm was measured. The assay was run in a miniaturized form to increase the concentration and therefore the enzymatic activity of DnaK. In a larger, standard format the ATPase activity of DnaK without peptide addition was 6 pmol/μg/min, in line with the published data of 4 pmol/μg/min [Liberek, K. et al, (1991) Proc. Natl. Acad. Sci. USA 88: 2874-2878].

[10] = system: alkaline phosphatase activities of live E. coli TG-1 cells; type: cell-based
[11] = system: β-galactosidase activities of live E. coli TG-1 cells; type: cell-based
[12] = system: E. coli D22; details: Otvos et al, 2000, Protein Science; cited from earlier work
[13] = biological target: E. coli DnaK fragment aa583-615 (D-E helix hinge) (Escherichia coli, UniProt P0A6Y8); assay: Fluorescence polarization with synthetic DnaK fragment aa583-615; type: binding; details: Tris HCl at pH 8.0; for binding to E. coli D-E helix hinge region aa583-615 at high concentration: 128 μM fragment
Procedure: The binding of the synthetic DnaK fragments to their fluorescein-labeled pyrrhocoricin counterparts was also assessed in solution, by fluorescence polarization [Lundblad, J. R. et al, (1996) Mol. Endocrinol. 10: 607-612]. For these experiments, the unlabeled peptides were serially diluted in PBS (pH 7.4) or 0.1 M Tris-HCl (pH 8.0) containing 0.1 M ethylene-diamine-tetraacetic acid (EDTA) in 50 μL final volume in 6×50 mm disposable glass borosilicate tubes. The fluoresceinated peptides were added to each tube in a 50 μL aliquot to a final concentration of 1 nM and tubes were incubated at 37° C. for 5 minutes. The extent of fluorescence anisotropy was measured on a Beacon 2000 fluorescence polarization instrument (PanVera, Madison, Wis.) and calculated as millipolarization values. The filters used were 485 nm excitation and 535 nm emission with 3 nm band width. Non-linear curve fitting was done by using a dose-response logistical transition [y=a0+a1/(1+x/a2)^a^3] and the Levenberg-Marquardt Algorithm within the SlideWrite software package. The provided Kd value (a2 coefficient) was calculated by the program.
To quantitatively characterize the pyrrhocoricin—D-E helix interaction, the complete binding curves were measured for E. coli DnaK fragments aa583-615 and aa588-615, both of SEQ ID NO: 10.

[14] = biological target: T2, S. aureus DnaK 554-585 (D-E helix fragment) (Staphylococcus aureus, UniProt P45554); assay: Fluorescence polarization with S. aureus DnaK D-E helix fragment; type: binding; details: Tris HCl at pH 8.0
T2 sequence (P45554 554-585 limits assumed): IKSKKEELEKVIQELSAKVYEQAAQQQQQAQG

[15] = biological target: blocked E. coli DnaK fragment aa591-615 (Escherichia coli, UniProt P0A6Y8); type: binding
[16] = Hoffmann et al, 1999; cited from earlier work
[17] = peptide 32 μg/mL, live E. coli TG-1, four independent assays
[18] = peptide 32 μg/mL, live E. coli TG-1, three independent assays

Chain of E. coli DnaK fragment aa583-615 (D-E helix hinge) (P0A6Y8 584-616): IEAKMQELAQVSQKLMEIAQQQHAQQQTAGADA
T1 sequence (P0A6Y8 whole entry): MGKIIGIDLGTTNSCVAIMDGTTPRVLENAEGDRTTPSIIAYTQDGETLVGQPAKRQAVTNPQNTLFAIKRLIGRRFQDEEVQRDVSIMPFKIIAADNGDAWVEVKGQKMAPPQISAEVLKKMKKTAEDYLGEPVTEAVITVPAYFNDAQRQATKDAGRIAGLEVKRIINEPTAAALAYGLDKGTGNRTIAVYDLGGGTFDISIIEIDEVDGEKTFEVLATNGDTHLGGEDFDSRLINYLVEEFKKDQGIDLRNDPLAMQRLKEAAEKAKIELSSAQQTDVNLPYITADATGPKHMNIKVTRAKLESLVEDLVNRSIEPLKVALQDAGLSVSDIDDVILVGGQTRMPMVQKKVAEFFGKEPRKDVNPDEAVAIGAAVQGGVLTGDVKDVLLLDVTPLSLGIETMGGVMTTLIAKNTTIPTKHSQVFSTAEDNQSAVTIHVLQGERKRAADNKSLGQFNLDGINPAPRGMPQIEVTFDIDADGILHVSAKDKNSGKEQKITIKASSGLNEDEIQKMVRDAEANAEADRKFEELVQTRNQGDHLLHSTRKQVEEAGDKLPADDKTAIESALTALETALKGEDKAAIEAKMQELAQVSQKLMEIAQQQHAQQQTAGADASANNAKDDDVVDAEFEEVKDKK
Chain of blocked E. coli DnaK fragment aa591-615 (P0A6Y8 592-616 limits assumed): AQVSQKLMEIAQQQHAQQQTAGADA
Chain of Hsp70 (P0DMV8 whole entry): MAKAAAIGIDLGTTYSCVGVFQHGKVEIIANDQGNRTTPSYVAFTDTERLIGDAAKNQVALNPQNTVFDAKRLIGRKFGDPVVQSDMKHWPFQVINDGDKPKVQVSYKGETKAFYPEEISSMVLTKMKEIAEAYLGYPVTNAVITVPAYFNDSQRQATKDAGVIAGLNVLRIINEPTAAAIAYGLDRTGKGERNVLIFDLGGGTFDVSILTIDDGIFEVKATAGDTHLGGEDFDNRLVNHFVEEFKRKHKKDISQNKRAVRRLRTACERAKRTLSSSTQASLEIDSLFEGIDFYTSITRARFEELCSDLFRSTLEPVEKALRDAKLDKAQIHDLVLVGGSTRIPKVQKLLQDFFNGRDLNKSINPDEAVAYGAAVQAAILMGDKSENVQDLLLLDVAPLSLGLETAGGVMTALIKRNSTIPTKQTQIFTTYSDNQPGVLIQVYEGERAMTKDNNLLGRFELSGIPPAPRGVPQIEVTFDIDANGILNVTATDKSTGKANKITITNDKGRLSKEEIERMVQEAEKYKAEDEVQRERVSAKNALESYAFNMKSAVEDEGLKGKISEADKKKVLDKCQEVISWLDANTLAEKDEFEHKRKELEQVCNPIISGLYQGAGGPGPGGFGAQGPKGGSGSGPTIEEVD
Chain of GroEL (P0A6F5 2-548 limits assumed): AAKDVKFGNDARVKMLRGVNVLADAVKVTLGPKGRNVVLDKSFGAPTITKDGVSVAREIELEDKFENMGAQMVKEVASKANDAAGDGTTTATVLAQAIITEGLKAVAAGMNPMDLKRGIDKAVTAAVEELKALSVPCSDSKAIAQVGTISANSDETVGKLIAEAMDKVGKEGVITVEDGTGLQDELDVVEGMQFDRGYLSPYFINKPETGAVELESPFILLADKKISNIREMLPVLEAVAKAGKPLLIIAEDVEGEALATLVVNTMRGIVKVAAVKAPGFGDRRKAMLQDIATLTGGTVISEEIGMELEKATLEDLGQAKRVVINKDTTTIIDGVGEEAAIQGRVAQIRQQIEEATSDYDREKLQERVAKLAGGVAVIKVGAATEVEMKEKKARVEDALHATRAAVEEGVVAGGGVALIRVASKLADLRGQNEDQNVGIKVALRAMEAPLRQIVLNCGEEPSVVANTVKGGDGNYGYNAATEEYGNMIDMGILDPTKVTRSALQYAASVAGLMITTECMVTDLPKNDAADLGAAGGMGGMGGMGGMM
Chain of E. coli DnaK aa583-615, hinge region between helices D and E (P0A6Y8 584-616 limits assumed): as the sequence (P0A6Y8 584-616) above
Chain of E. coli DnaK aa397-439, conventional peptide binding pocket (P0A6Y8 397-439): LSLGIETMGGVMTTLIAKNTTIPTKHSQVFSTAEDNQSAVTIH
Chain of DnaK (P0A6Y8 whole entry): as the sequence (P0A6Y8 whole entry) above

Substance: Biotin-KVDKGSYLPRPTPPRPIYNRN [biotin-K-pyrrhocoricin]
- concentration range killing E. coli strains [1]: submicromolar range
- binding to DnaK on the peptide blot [2]: bound strongly
- binding to E. coli LPS on Western-blot [3]: did not label LPS bands
- binding to S. typhimurium LPS on Western-blot [4]: did not label LPS bands
- dot blot binding to D-E helix hinge fragment [5]: bound
- dot blot binding to peptide-binding pocket fragment [6]: similarly bound
- binding to GroEL on the peptide blot [7]: very weak peptide binding
- binding to Hsp70 on the peptide blot [8]: very weak peptide binding

Substance: Cecropin A: membrane-active antimicrobial peptide; purchased from Bachem (KWKLFKKIEKVGQNIRDGIIKAGPAVAVVGQATQIAK)
- effect on ATPase activity of recombinant DnaK [9]: did not influence

Substance: Conantokin G
- Inhibition of enzymatic activity after 1 hour (%) Alkaline Phosphatase [10]: (−3) ± 23%
- Inhibition of enzymatic activity after 1 hour (%) β-Galactosidase [11]: (−10) ± 10%

Substance: D-pyrrhocoricin: SEQ ID NO: 3 with all amino acids in the D configuration; inactive analog ([dV][dD][dK]G[dS][dY][dL][dP][dR][dP][dT][dP][dP][dR][dP][dI][dY][dN][dR][dN])
- killing of E. coli D22 [12]: completely inactive
- Inhibition of enzymatic activity after 1 hour (%) Alkaline Phosphatase [10, 17]: (−6) ± 16%
- Inhibition of enzymatic activity after 1 hour (%) β-Galactosidase [11, 18]: (−4) ± 43%
- effect on ATPase activity of recombinant DnaK [9]: negligible effect

Substance: Magainin 2: antibacterial peptide that kills bacteria by disintegrating the membrane; from Bachem (GIGKFLHSAKKFGKAFVGEIMNS)
- Inhibition of enzymatic activity after 1 hour (%) Alkaline Phosphatase [10, 17]: (−23) ± 38%
- Inhibition of enzymatic activity after 1 hour (%) β-Galactosidase [11, 18]: (−50) ± 55%
- effect on ATPase activity of recombinant DnaK [9]: did not influence

Substance: NTDGSTDYGILQINSR
- binding to E. coli D-E helix hinge region aa583-615 ([13]; labeled peptide 1 nM): failed to bind

Substance: N—F-apidaecin: apidaecin with fluorescein label attached at the N-terminus
- binding to E. coli D-E helix hinge region aa583-615 at high concentration [13]: some binding
- binding to S. aureus D-E helix fragment [14]: failed to bind

Substance: N—F-drosocin: drosocin with fluorescein label attached at the N-terminus (fluorescein-KGKPRPYSPRPTSHPRPIRV)
- binding to E. coli D-E helix hinge region aa583-615 at high concentration [13]: some binding
- binding to blocked E. coli DnaK fragment aa591-615 [15]: failed to bind
- binding to S. aureus D-E helix fragment [14]: failed to bind

Substance: native glycosylated drosocin: native drosocin glycopeptide with a disaccharide in the mid-chain position (GKPRPYSPRPTSHPRPIRV; also: O-glycosylated disaccharide in mid-chain position; UniProt P36193 22-40, looked up)
- antibacterial activity when injected into mice [16]: no antibacterial activity
